Data on 32 compounds can be found in patent US10450318B2, “CXCR4 receptor antagonists” (BRISTOL-MYERS SQUIBB COMPANY, priority 2015, dated 2019).

The structures appear in SMILES notation.

T1 sequence (P61073 whole entry): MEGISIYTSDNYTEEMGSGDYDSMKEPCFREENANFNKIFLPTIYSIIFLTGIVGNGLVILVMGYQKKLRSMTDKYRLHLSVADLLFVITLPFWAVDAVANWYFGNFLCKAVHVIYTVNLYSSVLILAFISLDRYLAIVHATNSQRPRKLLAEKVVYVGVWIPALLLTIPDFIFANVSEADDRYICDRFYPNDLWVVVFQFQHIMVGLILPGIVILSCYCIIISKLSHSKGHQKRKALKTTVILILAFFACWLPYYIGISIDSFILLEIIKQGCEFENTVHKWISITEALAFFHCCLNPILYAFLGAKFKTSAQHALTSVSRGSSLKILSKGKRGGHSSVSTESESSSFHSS

The test concerns the target T1, CXCR4 receptors (Homo sapiens, UniProt P61073).
T1 construct: expressing endogenous CXCR4 receptors; endogenous in cells; host or cells: CCRF-CEM (human T lymphoblast cells)
Nature of the test: CXCR4-CEM calcium flux assay, antagonist mode (inhibition of SDF-1α-induced calcium flux). The test is classed as cell-based. Particulars: inhibition of calcium flux induced by 4 nM SDF-1α in CCRF-CEM cells. How it is done: Exemplary compounds of the invention were tested for their ability to induce or inhibit calcium flux in CCRF-CEM cells. […] CXCR4-CEM Calcium Flux Assays. […] The cells were then equilibrated to room temperature for 30 minutes before assay. […] The serially diluted compounds were diluted to working concentrations with the same assay buffer to 0.5% DMSO. […] Activity of the compounds to induce calcium flux was monitored by FDSS in the “agonist mode” for 90 sec. For “antagonist mode” assessment, the cells are subsequently incubated for 25 min at room temperature. SDF-1α (R&D System Cat#350-NS/CF) was then added at a final concentration of 4 nM to stimulate the cells. Inhibition of SDF-1α-induced calcium flux was monitored by FDSS6000 for 90 sec. […] After correcting for background, EC50 values were determined. […] Inhibition data for the test compound over a range of concentrations was plotted as percentage inhibition of the test compound as compared to an internal control compound.
Background: Calcium assays in cells follow changes in intracellular calcium, usually with a dye or a luminescent sensor.
Consider `CN(Cc1cn2c(N3CCNC(c4ccccc4)C3)nccc2n1)[C@H]1CCCc2cccnc21` (single isomer, unassigned) [Example 78], for which the IC50 (in general, the midpoint of a concentration-inhibition curve) is 11 nM.
To `CN(Cc1cn2c(N3CCNC(c4ccccc4)C3)nccc2n1)[C@H]1CCCc2cccnc21` (single isomer, unassigned) [Example 79] belongs 56 nM; to `CN(Cc1cn2c(N3CCN4CCOCC4C3)nccc2n1)[C@H]1CCCc2cccnc21` (single isomer, unassigned) [Example 91], > 30000 nM; to `CN(Cc1cn2c(N3CCN4CCOCC4C3)nccc2n1)[C@H]1CCCc2cccnc21` (single isomer, unassigned) [Example 92], 290 nM.
As for `CN(Cc1cn2c(N3CC4CCCNC4C3)nccc2n1)[C@H]1CCCc2cccnc21` (single isomer, unassigned) [Example 95], the figure is 24 nM; as for `CN(Cc1cn2c(N3CC4CCCNC4C3)nccc2n1)[C@H]1CCCc2cccnc21` (single isomer, unassigned) [Example 96], 220 nM.
Consider `CN(Cc1cn2c(N3CCN(C(=O)OC(C)(C)C)CC3)nccc2n1)[C@H]1CCCc2cccnc21` [Example 3, (S)-tert-Butyl 4-(2-((methyl(5,6,7,8-tetrahydroquinolin-8-yl)amino)methyl)imidazo[1,2-c]pyrimidin-5-yl)piperazine-1-carboxylate], for which the IC50 was > 30000 nM.
As for `CN1CCN(c2nccc3nc(CN(C)[C@H]4CCCc5cccnc54)cn23)CC1` [Example 4, (S)—N-Methyl-N-((5-(4-methylpiperazin-1-yl)imidazo[1,2-c]pyrimidin-2-yl)methyl)-5,6,7,8-tetrahydroquinolin-8-amine], the figure is 2.5 nM; as for `CN(Cc1cn2c(N3CCNCC3)nccc2n1)[C@H]1CCCc2cccnc21` [Example 5, (S)—N-Methyl-N-((5-(piperazin-1-yl)imidazo[1,2-c]pyrimidin-2-yl)methyl)-5,6,7,8-tetrahydroquinolin-8-amine], 8.1 nM; as for `CN(Cc1nc2ccnc(N3CCNCC3)n2c1CO)[C@H]1CCCc2cccnc21` [Example 6, (S)-(2-((Methyl(5,6,7,8-tetrahydroquinolin-8-yl)amino)methyl)-5-(piperazin-1-yl)imidazo[1,2-c]pyrimidin-3-yl)methanol], 3.8 nM.
To `CN1CCN(c2nccc3nc(CN(C)[C@H]4CCCc5cccnc54)c(CO)n23)CC1` [Example 7, (S)-(2-((Methyl(5,6,7,8-tetrahydroquinolin-8-yl)amino)methyl)-5-(4-methylpiperazin-1-yl)imidazo[1,2-c]pyrimidin-3-yl)methanol] belongs 2.4 nM.
As for `CSc1nccc2nc(CN(C)[C@H]3CCCc4cccnc43)cn12` [Example 8, (S)—N-Methyl-N-((5-(methylthio)imidazo[1,2-c]pyrimidin-2-yl)methyl)-5,6,7,8-tetrahydroquinolin-8-amine], the figure is 89 nM.
In the case of `CN(Cc1cn2c(N3CCOCC3)nccc2n1)[C@H]1CCCc2cccnc21` [Example 9, (S)—N-Methyl-N-((5-morpholinoimidazo[1,2-c]pyrimidin-2-yl)methyl)-5,6,7,8-tetrahydroquinolin-8-amine], the IC50 worked out at 25500 nM.
Regarding `CC(=O)N1CCN(c2nccc3nc(CN(C)[C@H]4CCCc5cccnc54)cn23)CC1` [Example 10, (S)-1-(4-(2-((Methyl(5,6,7,8-tetrahydroquinolin-8-yl)amino)methyl)imidazo[1,2-c]pyrimidin-5-yl)piperazin-1-yl)ethanone], the IC50 was 8600 nM.
To `CN(Cc1cn2c(N3CCN(CCO)CC3)nccc2n1)[C@H]1CCCc2cccnc21` [Example 11, (S)-2-(4-(2-((Methyl(5,6,7,8-tetrahydroquinolin-8-yl)amino)methyl)imidazo[1,2-c]pyrimidin-5-yl)piperazin-1-yl)ethanol] belongs 13 nM.
Turning to `CN(Cc1cn2c(N3CCN(CCF)CC3)nccc2n1)[C@H]1CCCc2cccnc21` [Example 12, (S)—N-((5-(4-(2-Fluoroethyl)piperazin-1-yl)imidazo[1,2-c]pyrimidin-2-yl)methyl)-N-methyl-5,6,7,8-tetrahydroquinolin-8-amine], the IC50 turned out to be 54 nM.
To `COC(=O)N1CCN(c2nccc3nc(CN(C)[C@H]4CCCc5cccnc54)cn23)CC1` [Example 13, (S)-Methyl 4-(2-((methyl(5,6,7,8-tetrahydroquinolin-8-yl)amino)methyl)imidazo[1,2-c]pyrimidin-5-yl)piperazine-1-carboxylate] belongs 5670 nM; to `CCNC(=O)N1CCN(c2nccc3nc(CN(C)[C@H]4CCCc5cccnc54)cn23)CC1` [Example 14, (S)—N-ethyl-4-(2-((methyl(5,6,7,8-tetrahydroquinolin-8-yl)amino)methyl)imidazo[1,2-c]pyrimidin-5-yl)piperazine-1-carboxamide], 1230 nM; to `CN(Cc1cn2c(N3CCN(S(C)(=O)=O)CC3)nccc2n1)[C@H]1CCCc2cccnc21` [Example 15, (S)—N-Methyl-N-((5-(4-(methylsulfonyl)piperazin-1-yl)imidazo[1,2-c]pyrimidin-2-yl)methyl)-5,6,7,8-tetrahydroquinolin-8-amine], 750 nM.
As to `CN(Cc1cn2c(N3CCN(CCN)CC3)nccc2n1)[C@H]1CCCc2cccnc21` [Example 16, (S)—N-((5-(4-(2-Aminoethyl)piperazin-1-yl)imidazo[1,2-c]pyrimidin-2-yl)methyl)-N-methyl-5,6,7,8-tetrahydroquinolin-8-amine], the half-inhibitory concentration (IC50) was 540 nM.
As for `[2H]C([2H])([2H])N1CCN(c2nccc3nc(CN(C)[C@H]4CCCc5cccnc54)cn23)CC1` [Example 17, (S)—N-Methyl-N-((5-(4-(methyl-d3)piperazin-1-yl)imidazo[1,2-c]pyrimidin-2-yl)methyl)-5,6,7,8-tetrahydroquinolin-8-amine], the figure is 3.7 nM; as for `CN(Cc1cn2c(N3CCN(CCc4ccccc4)CC3)nccc2n1)[C@H]1CCCc2cccnc21` [Example 18, (S)-N-methyl-N-({5-[4-(2-phenylethyl)piperazin-1-yl]imidazo[1,2-c]pyrimidin-2-yl}methyl)-5,6,7,8-tetrahydroquinolin-8-amine], 14 nM; as for `CC(C)CCN1CCN(c2nccc3nc(CN(C)[C@H]4CCCc5cccnc54)cn23)CC1` [Example 19, (S)-N-methyl-N-({5-[4-(3-methylbutyl)piperazin-1-yl]imidazo[1,2-c]pyrimidin-2-yl}methyl)-5,6,7,8-tetrahydroquinolin-8-amine], 14 nM.
On to `CC(C)N1CCN(c2nccc3nc(CN(C)[C@H]4CCCc5cccnc54)cn23)CC1` [Example 20, (S)-N-methyl-N-({5-[4-(propan-2-yl)piperazin-1-yl]imidazo[1,2-c]pyrimidin-2-yl}methyl)-5,6,7,8-tetrahydroquinolin-8-amine], for which the IC50 turned out to be 9.6 nM.
To `CN(Cc1cn2c(N3CCN(CC4CC4)CC3)nccc2n1)[C@H]1CCCc2cccnc21` [Example 21, (8S)-N-({5-[4-(cyclopropylmethyl)piperazin-1-yl]imidazo[1,2-c]pyrimidin-2-yl}methyl)-N-methyl-5,6,7,8-tetrahydroquinolin-8-amine] belongs 17 nM; to `CC(C)CN1CCN(c2nccc3nc(CN(C)[C@H]4CCCc5cccnc54)cn23)CC1` [Example 22, (S)-N-methyl-N-({5-[4-(2-methylpropyl)piperazin-1-yl]imidazo[1,2-c]pyrimidin-2-yl}methyl)-5,6,7,8-tetrahydroquinolin-8-amine], 42 nM.
For the compound `CN(Cc1cn2c(N3CCN(C4CCCCC4)CC3)nccc2n1)[C@H]1CCCc2cccnc21` [Example 23, (S)-N-{[5-(4-cyclohexylpiperazin-1-yl)imidazo[1,2-c]pyrimidin-2-yl]methyl}-N-methyl-5,6,7,8-tetrahydroquinolin-8-amine], the IC50 amounted to 770 nM.
To `CN(Cc1cn2c(N3CCN(Cc4ccc(O)cc4)CC3)nccc2n1)[C@H]1CCCc2cccnc21` [Example 24, 4-({4-[2-({methyl[(S)-5,6,7,8-tetrahydroquinolin-8-yl]amino}methyl)imidazo[1,2-c]pyrimidin-5-yl]piperazin-1-yl}methyl)phenol] belongs 11 nM; to `CN(Cc1cn2c(N3CCN(Cc4cccc(Cl)c4)CC3)nccc2n1)[C@H]1CCCc2cccnc21` [Example 25, (S)-N-[(5-{4-[(3-chlorophenyl)methyl]piperazin-1-yl}imidazo[1,2-c]pyrimidin-2-yl)methyl]-N-methyl-5,6,7,8-tetrahydroquinolin-8-amine], 12 nM; to `CN(Cc1cn2c(N3CCN(Cc4cccs4)CC3)nccc2n1)[C@H]1CCCc2cccnc21` [Example 26, (S)-N-methyl-N-({5-[4-(thiophen-2-ylmethyl)piperazin-1-yl]imidazo[1,2-c]pyrimidin-2-yl}methyl)-5,6,7,8-tetrahydroquinolin-8-amine], 14 nM.
To `CN(Cc1cn2c(N3CCN(Cc4cncn4C)CC3)nccc2n1)[C@H]1CCCc2cccnc21` [Example 27, (S)-N-methyl-N-[(5-{4-[(1-methyl-1H-imidazol-5-yl)methyl]piperazin-1-yl}imidazo[1,2-c]pyrimidin-2-yl)methyl]-5,6,7,8-tetrahydroquinolin-8-amine] belongs 75 nM.
In the case of `CN(Cc1cn2c(N3CCN(Cc4cccnc4)CC3)nccc2n1)[C@H]1CCCc2cccnc21` [Example 28], the half-inhibitory concentration (IC50) came out at 11 nM.
